Usually IC50 stands for the concentration that gives 50% inhibition.

Series [1] has as its system PKC inhibitor (PKCi)-resistant MP41 uveal melanoma cells. The experiment in a line: 7-day growth inhibition assay, PKC inhibitor-resistant cells (Example 14). It counts as cell-based. How it is done:
(§1) Procedure: MP41 uveal melanoma cells were made resistant to the PKC inhibitor (LXS196; MedChemExpress), by long-term culture in growth media (see Table 6) containing increasing concentrations of the compound, up to 1 micromolar. After 3 months, sensitivity of the parental MP41 cells and the PKC inhibitor (PKCi)-resistant cells to the PKC inhibitor (LXS196) or the BRG1/BRM ATPase inhibitor (Compound B) was tested in a 7-day growth inhibition assay as described above in Example 9.

The next series concerns parental MP41 cells. The series can be described thus: 7-day growth inhibition assay, parental cells (Example 14). Particulars: FIG. 7B, 7-day assay. It counts as cell-based. The method, then: as §1
Series [2] concerns Uveal melanoma cell lines, 92-1 or MP41. The series can be described thus: 3-day growth inhibition compared with clinical PKC and MEK inhibitors, Compound B (Example 13). It is filed as cell-based. Particulars: FIG. 6A and 6B. The method, then: Procedure: Uveal melanoma cell lines, 92-1 or MP41, were plated in 96 well plates in the presence of growth media (see Table 6). BAF ATPase inhibitor (Compound B), PKC inhibitor (LXS196; MedChemExpress), and MEK Inhibitor (Selumetinib; Selleck Chemicals) were dissolved in DMSO and added to the cells in a concentration gradient from 0 to 10 micromolar at the time of plating. Cells were incubated at 37° C. for 3 days. After three days of treatment, cell growth was measured with Cell-titer glow (Promega), and luminescence was read on an Envision plate reader (Perkin Elmer).

In series [3] the test system is Uveal melanoma cell lines (92-1, MP41, MP38, MP46) and Non-small cell lung cancer cells (NCIH1299). The experiment in a line: 3-day cell growth, Cell-titer glow (Example 12). It counts as cell-based. As to conditions: FIG. 5, 3 days, 0 to 10 micromolar. The method, then: Procedure: Uveal melanoma cell lines (92-1, MP41, MP38, MP46) and Non-small cell lung cancer cells (NCIH1299) were plated into 96 well plates with growth media (see Table 6). BRG1/BRM ATPase inhibitor, compound 67, was dissolved in DMSO and added to the cells in a concentration gradient from 0 to 10 micromolar at the time of plating. Cells were incubated at 37° C. for 3 days. After three days of treatment, cell growth was measured with Cell-titer glow (Promega), and luminescence was read on an Envision plate reader (Perkin Elmer).

Series [4] relates to Uveal melanoma cell lines, 92-1 or MP41. The experiment in a line: 3-day growth inhibition compared with clinical PKC and MEK inhibitors, Compound A (Example 8). As to conditions: FIG. 2A and 2B. It counts as cell-based. The method, then:
Procedure: Uveal melanoma cell lines, 92-1 or MP41, were plated in 96 well plates in the presence of growth media (see Table 5). […] Cells were incubated at 37 degrees Celsius for 3 days. After three days of treatment, cell growth was measured with Cell-titer glow (Promega), and luminescence was read on an Envision plate reader (Perkin Elmer).

Series [5] in a line: Body weight and tolerability in mice engrafted with 92-1 tumors (Example 16). As to conditions: all treatments, once daily oral gavage, 3 weeks, FIG. 8C. It is filed as in vivo. How it is done: Procedure: Nude mice (Envigo) were engrafted subcutaneously in the axillary region with 5×10^6 92-1 uveal melanoma cells in 50% Matrigel. Tumors were grown to a mean of ˜200 mm^3, at which point mice were grouped and dosing was initiated. Mice were dosed once daily by oral gavage with vehicle (20% 2-Hydroxypropyl-[…]) or increasing doses of Compound C. Tumor volumes and body weights were measured over the course of 3 weeks, and doses were adjusted by body weight to achieve the proper dose in terms of mg/kg. At this time, animals were sacrificed, and tumors were dissected and imaged.

The next series addresses T1, BRM (Homo sapiens, UniProt P51531).
T1 construct: made in house; host or cells: High Five insect cells
The experiment in a line: ATPase catalytic activity of BRM, ADP-Glo in vitro biochemical assay. As to conditions: for IC50: 30 nM BRM, 400 μM ATP; for Ratio*: ratio of BRG1 IC50 to BRM IC50; for Ratio* (BRG1 IC50 (μM) divided by BRM IC50 (μM)): selectivity ratio BRG1 IC50 / BRM IC50. In short, it runs like this: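 ADP-Glo luminescence, after depletion of leftover ATP and conversion of ADP, reported the activity. The 1 h room-temperature reaction held 400 μM ATP, 20 nM salmon sperm DNA and 30 nM BRM in 20 mM Tris pH 8, 20 mM MgCl2, 50 mM NaCl, 0.1% Tween-20, 1 mM DTT.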
(ADP-Glo turns the ADP formed in a reaction into a luminescent signal.)

A further series has as its target T2, BRG-1 (Homo sapiens, UniProt P51532).
T2 construct: made in house; host or cells: High Five insect cells
The series can be described thus: ATPase catalytic activity of BRG-1, ADP-Glo in vitro biochemical assay. As to conditions: 30 nM BRG-1, 400 μM ATP, read-out: BRG1 IC50. In short, it runs like this: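 Luminescence read-out: ADP formed by BRG-1 ATPase is converted to ATP and detected by luciferase. Residual ATP is first removed with ADP-Glo Reagent for 40 min at RT; detection reagent is then incubated 60 min at RT before reading.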

[6] abbreviates: ATPase catalytic activity, ADP-Glo.

Read-outs that look alike come from different tables or passages of the source.

T2 sequence (P51532 whole entry): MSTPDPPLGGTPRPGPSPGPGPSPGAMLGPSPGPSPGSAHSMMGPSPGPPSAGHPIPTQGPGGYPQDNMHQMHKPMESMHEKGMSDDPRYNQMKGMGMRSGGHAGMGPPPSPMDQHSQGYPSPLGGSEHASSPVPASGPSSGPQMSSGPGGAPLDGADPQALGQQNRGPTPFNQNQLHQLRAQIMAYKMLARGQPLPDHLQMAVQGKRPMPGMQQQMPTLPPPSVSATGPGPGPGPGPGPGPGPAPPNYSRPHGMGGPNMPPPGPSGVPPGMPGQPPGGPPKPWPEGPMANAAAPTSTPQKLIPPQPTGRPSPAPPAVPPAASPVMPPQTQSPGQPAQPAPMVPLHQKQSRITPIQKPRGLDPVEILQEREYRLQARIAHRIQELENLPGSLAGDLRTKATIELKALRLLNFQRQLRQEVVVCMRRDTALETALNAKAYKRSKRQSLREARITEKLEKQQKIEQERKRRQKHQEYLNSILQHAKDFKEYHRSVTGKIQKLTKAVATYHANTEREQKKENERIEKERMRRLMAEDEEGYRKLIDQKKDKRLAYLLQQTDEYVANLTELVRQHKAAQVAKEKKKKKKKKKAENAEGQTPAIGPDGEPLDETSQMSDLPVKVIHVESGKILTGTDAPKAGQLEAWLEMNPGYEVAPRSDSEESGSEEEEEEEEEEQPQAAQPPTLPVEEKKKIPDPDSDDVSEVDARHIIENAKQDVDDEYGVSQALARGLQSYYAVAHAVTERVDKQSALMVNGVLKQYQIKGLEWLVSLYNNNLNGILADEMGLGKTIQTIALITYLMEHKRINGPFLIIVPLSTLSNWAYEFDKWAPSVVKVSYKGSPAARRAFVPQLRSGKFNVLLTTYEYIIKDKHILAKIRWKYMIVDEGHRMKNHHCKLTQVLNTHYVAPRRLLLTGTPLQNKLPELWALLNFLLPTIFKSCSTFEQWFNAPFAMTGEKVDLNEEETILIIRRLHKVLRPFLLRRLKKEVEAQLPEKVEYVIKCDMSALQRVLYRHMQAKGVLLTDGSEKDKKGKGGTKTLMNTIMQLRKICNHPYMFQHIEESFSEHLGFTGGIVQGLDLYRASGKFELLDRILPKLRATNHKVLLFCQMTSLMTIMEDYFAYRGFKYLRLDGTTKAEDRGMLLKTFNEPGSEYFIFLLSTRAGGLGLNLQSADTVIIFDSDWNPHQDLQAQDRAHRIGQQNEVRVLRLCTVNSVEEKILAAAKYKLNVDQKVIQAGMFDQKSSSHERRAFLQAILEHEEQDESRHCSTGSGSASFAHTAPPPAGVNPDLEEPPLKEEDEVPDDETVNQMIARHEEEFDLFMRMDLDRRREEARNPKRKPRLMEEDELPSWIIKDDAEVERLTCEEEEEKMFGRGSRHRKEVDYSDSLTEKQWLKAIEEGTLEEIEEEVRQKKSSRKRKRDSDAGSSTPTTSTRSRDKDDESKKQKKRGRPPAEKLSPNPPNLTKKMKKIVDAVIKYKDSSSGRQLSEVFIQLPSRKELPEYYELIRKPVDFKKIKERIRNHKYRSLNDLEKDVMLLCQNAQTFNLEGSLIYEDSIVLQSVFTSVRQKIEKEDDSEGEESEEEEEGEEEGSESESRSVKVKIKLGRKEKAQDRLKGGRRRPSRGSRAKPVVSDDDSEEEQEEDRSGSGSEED
T1 sequence (P51531 whole entry): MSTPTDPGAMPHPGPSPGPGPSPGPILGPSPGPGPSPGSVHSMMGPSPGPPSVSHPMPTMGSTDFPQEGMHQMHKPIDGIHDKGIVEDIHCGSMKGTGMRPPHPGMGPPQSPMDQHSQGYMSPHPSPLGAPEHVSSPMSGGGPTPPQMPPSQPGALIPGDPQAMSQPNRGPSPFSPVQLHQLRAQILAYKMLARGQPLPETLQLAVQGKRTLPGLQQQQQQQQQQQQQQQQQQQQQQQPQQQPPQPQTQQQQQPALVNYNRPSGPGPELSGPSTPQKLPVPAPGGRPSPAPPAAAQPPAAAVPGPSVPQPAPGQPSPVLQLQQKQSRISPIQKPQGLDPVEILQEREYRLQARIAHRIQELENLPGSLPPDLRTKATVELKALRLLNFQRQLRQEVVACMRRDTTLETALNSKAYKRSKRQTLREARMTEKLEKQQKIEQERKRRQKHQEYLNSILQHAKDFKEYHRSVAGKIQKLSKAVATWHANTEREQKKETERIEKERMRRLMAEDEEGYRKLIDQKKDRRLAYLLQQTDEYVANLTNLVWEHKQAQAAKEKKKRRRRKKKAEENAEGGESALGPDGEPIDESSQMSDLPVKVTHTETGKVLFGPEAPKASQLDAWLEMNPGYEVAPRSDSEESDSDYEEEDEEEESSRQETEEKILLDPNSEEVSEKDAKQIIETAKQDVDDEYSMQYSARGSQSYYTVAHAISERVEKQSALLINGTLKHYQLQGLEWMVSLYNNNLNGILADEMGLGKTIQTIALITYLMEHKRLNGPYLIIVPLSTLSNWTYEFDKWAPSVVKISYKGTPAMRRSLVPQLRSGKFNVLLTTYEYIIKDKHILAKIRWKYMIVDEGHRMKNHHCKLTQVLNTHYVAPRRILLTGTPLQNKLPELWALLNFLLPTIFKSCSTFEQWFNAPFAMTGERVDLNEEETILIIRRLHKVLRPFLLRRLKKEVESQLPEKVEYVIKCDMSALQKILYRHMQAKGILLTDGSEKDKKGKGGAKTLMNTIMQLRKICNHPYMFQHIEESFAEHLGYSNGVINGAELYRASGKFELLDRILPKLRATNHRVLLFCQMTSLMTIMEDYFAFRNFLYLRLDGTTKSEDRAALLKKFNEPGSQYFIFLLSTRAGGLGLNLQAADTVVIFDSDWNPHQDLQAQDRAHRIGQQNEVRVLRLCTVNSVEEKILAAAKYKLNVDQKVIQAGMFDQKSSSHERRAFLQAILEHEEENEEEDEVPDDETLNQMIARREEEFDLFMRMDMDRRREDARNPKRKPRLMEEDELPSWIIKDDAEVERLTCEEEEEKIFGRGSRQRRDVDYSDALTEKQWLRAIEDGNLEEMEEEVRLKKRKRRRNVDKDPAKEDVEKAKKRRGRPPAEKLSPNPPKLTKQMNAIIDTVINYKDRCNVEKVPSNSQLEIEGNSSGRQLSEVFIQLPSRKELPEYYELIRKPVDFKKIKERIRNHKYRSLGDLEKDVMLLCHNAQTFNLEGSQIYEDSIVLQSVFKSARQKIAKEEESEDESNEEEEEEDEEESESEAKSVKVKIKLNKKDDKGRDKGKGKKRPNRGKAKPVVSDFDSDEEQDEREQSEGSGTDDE

For the molecule `CC1(N)CCN(c2cccnc2NC(=O)c2nc(-c3ncccc3C(F)(F)F)cnc2N)CC1` [LXS196, reference compound], the “tolerance of PKCi-resistant cells versus the parental MP41 cell line” value in series [1] (FIG. 7A) was “could tolerate growth at higher concentrations”.

On to `CSCC[C@H](NC(=O)c1ccn(S(C)(=O)=O)c1)C(=O)Nc1nc(-c2cccc(-c3ccncc3)c2)cs1` [Compound B, (S)-1-(methylsulfonyl)-N-(4-(methylthio)-1-oxo-1-((4-(3-(pyridin-4-yl)phenyl)thiazol-2-yl)amino)butan-2-yl)-1H-pyrrole-3-carboxamide], for which the “growth inhibition of parental cell line” value with parental MP41 cells is “strong growth inhibition”. In addition, the “onset of growth inhibition versus the clinical PKC and MEK inhibitors” value in series [2] was “faster onset of growth inhibition”. Also, the “growth inhibition of uveal melanoma cells versus the clinical PKC and MEK inhibitors” value in series [2] (3 days, 0 to 10 micromolar) is given as “more potent effects on growth inhibition”. The “growth inhibition in the uveal melanoma cell lines” value in series [3] is “potent growth inhibition”. Besides, the “sensitivity of PKCi-resistant cells versus the parental MP41 cells” value in series [1] (FIG. 7B) is reported as “more sensitive”. Also, the “growth inhibition of PKCi-resistant cell line” value in series [1] (FIG. 7B, 7-day assay) is on record as “strong growth inhibition”.

Consider `CSCC[C@H](NC(=O)c1ccc(N)cc1)C(=O)Nc1nc(-c2cccc(-c3ccncc3)c2)cs1` [Compound A], for which the “onset of inhibition versus the clinical PKC and MEK inhibitors” value in series [4] is on record as “faster onset of inhibition”. The “growth inhibition of uveal melanoma cells versus the clinical PKC and MEK inhibitors” value in series [4] (3 days, 0 to 10 micromolar) is reported as “comparable growth inhibition”.

On to `C[C@@H]1CN(c2cccc(-c3csc(NC(=O)CNC(=O)c4ccn(C(C)(C)C)c4)n3)n2)C[C@H](C)O1` [Compound C, 1-(tert-butyl)-N-(2-((4-(6-(cis-2,6-dimethylmorpholino)pyridin-2-yl)thiazol-2-yl)amino)-2-oxoethyl)-1H-pyrrole-3-carboxamide], for which the “tolerability, body weight” value in series [5] is “well tolerated with no body weight loss observed”.

For `C[C@H]1COCc2ccc(C(=O)NCc3cc4nc(-c5cccc([C@H]6CC6(F)F)n5)ccc4cn3)cc2S1(=O)=O` [Compound 392], the half-inhibitory concentration (IC50) against BRM (setting [6]) worked out at 42.1 nM; at BRG-1 (setting [6]) it was 1100 nM. Moreover, on BRM, the “Ratio*” value came to 26.15.

Turning to `Cc1ccc2c(c1)OCCN2c1ccc2cnc(CNC(=O)c3ccc4c(c3)S(=O)(=O)CCCO4)cc2n1` [Compound 551], the figures for the IC50 against BRM (setting [6]) and on BRG-1 (setting [6]) were 20.3 nM and 399 nM, respectively. Further, the “Ratio*” value on BRM is 19.65.

With `CN1CCCc2ccc(-c3ccc4cnc(CNC(=O)c5ccc6c(c5)S(=O)(=O)CCOC6)cc4n3)nc21` [Compound 488], the IC50 against BRM (setting [6]) was found to be 12.7 nM; at BRG-1 (setting [6]) it was 90.8 nM. The “Ratio*” value at BRM was 7.17.

For the molecule `O=C(NCc1cc2nc(N3CCCc4ccc(C5CCCO5)nc43)ccc2cn1)c1ccc2c(c1)S(=O)(=O)CCOC2` (stereo not shown) [Compound 659], the half-maximal inhibitory concentration (IC50) on BRM (setting [6]) is 42.7 nM; on BRG-1 (setting [6]) it was 1040 nM. Moreover, at BRM, the “Ratio*” value amounted to 24.28.

As to `CS(=O)(=O)c1cc(C(=O)NCc2cc3nc(-c4cccc(N5CC[C@H]6COC[C@H]6C5)n4)ccc3cn2)ccc1C(F)F` [Compound 95], the values for the IC50 on BRM (ADP-Glo ATPase assay) and at BRG-1 (ADP-Glo ATPase assay) were 40.7 nM and 610 nM, respectively. Besides, the “Ratio* (BRG1 IC50 (μM) divided by BRM IC50 (μM))” value at BRM worked out at 15.00.

Take `CO[C@@H](C)c1ccc2c(n1)N(c1ccc3cnc(CNC(=O)c4ccc5c(c4)S(=O)(=O)CCOC5)cc3n1)CCC2` [Compound 561]: the figures for the IC50 at BRM (setting [6]) and on BRG-1 (setting [6]) were 67.2 nM and 839 nM, respectively. The “Ratio*” value at BRM turned out to be 12.50.

As to `O=C(NCc1cc2nc(N3CCCc4ccc(OCC5COC5)cc43)ccc2cn1)c1ccc2c(c1)S(=O)(=O)CCOC2` [Compound 676], the IC50 against BRM (setting [6]) was found to be 3 nM; on BRG-1 (setting [6]), 35.5 nM. In addition, on BRM, the “Ratio*” value turned out to be 11.70.

With `C[C@@H]1CN(c2cccc(-c3ccc4nnc(CNC(=O)c5ccc6c(c5)S(=O)(=O)CCOC6)cc4c3)n2)C[C@H](C)O1` [Compound 160], the IC50 came to 3 nM against BRM (ADP-Glo ATPase assay) and 13.6 nM at BRG-1 (ADP-Glo ATPase assay). For the same molecule, at BRM, the “Ratio* (BRG1 IC50 (μM) divided by BRM IC50 (μM))” value came to 4.54.

`C[C@@H]1CN(c2cccc(-c3ccc4cnc(CNC(=O)c5cc(Cl)c6c(c5)S(=O)(=O)CC[C@H](C)O6)cc4n3)n2)C[C@H](C)O1` [Compound 506]: the IC50 was 49.2 nM at BRM (setting [6]) and 645 nM at BRG-1 (setting [6]). The “Ratio*” value on BRM is on record as 13.12.

`O=C(NCc1cc2nc(-c3cccc(N(CC4COC4)C4CC4)n3)ccc2cn1)c1ccc2c(c1)S(=O)(=O)CCOC2` [Compound 428]: the IC50 was determined as 50.3 nM on BRM (setting [6]) and 324 nM at BRG-1 (setting [6]). Moreover, the “Ratio*” value at BRM is 6.45.

With `O=C(NCc1cc2nc(N3CCCc4c(OC5COC5)cccc43)ccc2cn1)c1ccc2c(c1)S(=O)(=O)CCOC2` [Compound 555], the IC50 turned out to be 4.6 nM on BRM (setting [6]) and 25 nM on BRG-1 (setting [6]). In addition, the “Ratio*” value on BRM is on record as 5.44.

Regarding `CC(F)(F)c1ccc2c(n1)N(c1ccc3cnc(CNC(=O)c4ccc5c(c4)S(=O)(=O)CCOC5)cc3n1)CCO2` [Compound 617], the half-inhibitory concentration (IC50) is 90.4 nM at BRM (setting [6]) and 2540 nM at BRG-1 (setting [6]). Further, the “Ratio*” value on BRM stood at 28.12.

The values above are taken from patent US20230416248A1, “COMPOUNDS AND USES THEREOF” (Foghorn Therapeutics Inc., priority 2020, published 2023).
